{"source": "patent US7595156B2", "about": "(priority 2003, dated 2009)", "key": {"mosquito larva": {"test_system": "mosquito larva", "settings": "background statement, Liang and Zhou 1987; cited from earlier work"}, "[1]": {"settings": "background statement, Liang and Zhou 1987; cited from earlier work"}, "Saccharomyces cerevisiae": {"test_system": "Saccharomyces cerevisiae", "assay": "Antifungal activity test, growth inhibition zones", "type": "cell-based", "settings": "activity of the CS101 and CS102 culture mediums attributed to the variants produced in the mutant strains; FIG. 7", "protocol": "FR-008 mutant strains CS101 and CS102 were added (see, FIG. 7). In FIG. 7, the left turbid zone is a zone added with Streptomyces sp. FR-008, the middle is a zone added with the mutant strain CS101, and the right is a zone added with the mutant strain CS102. […] This is caused by the polyketide variants V, VI, VIII, IX, X, XI and XII, which are produced in the mutant strains."}}, "data": [{"smiles": "C[C@H](C[C@H](C)[C@@H]1OC(=O)CC(=O)CCCC(=O)C[C@@H](O)C[C@@H](O)C[C@@H](O)C[C@]2(O)C[C@H](O)[C@H](C(=O)O)[C@H](C[C@H](O[C@@H]3O[C@@H](C)[C@H](O)[C@@H](N)[C@H]3O)/C=C/C=C/C=C/C=C/C=C/C=C/C=C/[C@@H]1C)O2)[C@H](O)CC(=O)c1ccc(N)cc1", "note": "[FR-008 polyketide]", "values": [{"measurement": "toxicity against mosquito larva", "setting": "mosquito larva", "value": "high toxicity"}, {"measurement": "antifungal activity", "setting": "[1]", "value": "antifungal activity"}]}, {"smiles": "C[C@H](C[C@H](C)[C@@H]1OC(=O)CC(=O)CCCC(=O)CCC[C@@H](O)C[C@@H](O)CC(=O)C[C@H](O)[C@H](C(=O)O)[C@@H](O)C[C@H](O[C@@H]2O[C@@H](C)[C@H](O)C(=O)[C@H]2O)/C=C/C=C/C=C/C=C/C=C/C=C/C=C/[C@@H]1C)[C@H](O)CC(=O)c1ccc(N)cc1", "note": "[polyketide XII]", "values": [{"measurement": "antifungal activity of polyketide variants", "setting": "Saccharomyces cerevisiae", "value": "antifungal activity"}]}]}
